ChEMBL document CHEMBL3351417, “Thiophene-3-carboxamide analogue of annonaceous acetogenins as antitumor drug lead” (Eur J Med Chem, 2014)
Active and inactive are the calls of the source. The rule behind the calls is not given here.

Assays:
DU-145 = experiment: Growth inhibition of human DU145 cells after 48 hrs by sulforhodamine B colorimetric assay; format: functional; details: DU-145, 48 h
[1] = Toxicity in human NCI-H23 cells xenografted in mouse ip dosed on day 0 and day; format: organism-based; details: in vivo
SF-268 = experiment: Growth inhibition of human SF268 cells after 48 hrs by sulforhodamine B colorimetric assay; format: functional; details: SF-268, 48 h
[2] = Growth inhibition of human HBC4 cells after 48 hrs by sulforhodamine B colorimetric assay; format: functional; details: HBC4, 48 h
[3] = Growth inhibition of human SNB78 cells after 48 hrs by sulforhodamine B colorimetric assay; format: functional; details: SNB-78, 48 h
KM12 = experiment: Growth inhibition of human KM12 cells after 48 hrs by sulforhodamine B colorimetric assay; format: functional; details: KM12, 48 h
[4] = Growth inhibition of human OVCAR5 cells after 48 hrs by sulforhodamine B colorimetric assay; format: functional; details: OVCAR-5, 48 h
[5] = Growth inhibition of human HCT15 cells after 48 hrs by sulforhodamine B colorimetric assay; format: functional; details: HCT-15, 48 h
[6] = Growth inhibition of human HCC2998 cells after 48 hrs by sulforhodamine B colorimetric assay; format: functional; details: HCC 2998, 48 h
[7] = Growth inhibition of human SF295 cells after 48 hrs by sulforhodamine B colorimetric assay; format: functional; details: SF-295, 48 h
[8] = Growth inhibition of human RXF631L cells after 48 hrs by sulforhodamine B colorimetric assay; format: functional; details: RXF 631, 48 h
U-251 = experiment: Growth inhibition of human U251 cells after 48 hrs by sulforhodamine B colorimetric assay; format: functional; details: U-251, 48 h
SNB-75 = experiment: Growth inhibition of human SNB75 cells after 48 hrs by sulforhodamine B colorimetric assay; format: functional; details: SNB-75, 48 h
SK-OV-3 = experiment: Growth inhibition of human SKOV3 cells after 48 hrs by sulforhodamine B colorimetric assay; format: functional; details: SK-OV-3, 48 h
HT-29 = experiment: Growth inhibition of human HT-29 cells after 48 hrs by sulforhodamine B colorimetric assay; format: functional; details: HT-29, 48 h
[9] = Growth inhibition of human HCT116 cells after 48 hrs by sulforhodamine B colorimetric assay; format: functional; details: HCT-116, 48 h
[10] = Growth inhibition of human MKN28 cells after 48 hrs by sulforhodamine B colorimetric assay; format: functional; details: MKN-28, 48 h
[11] = Growth inhibition of human LOXIMVI cells after 48 hrs by sulforhodamine B colorimetric assay; format: functional; details: LOX IMVI
[12] = Growth inhibition of human MKN1 cells after 48 hrs by sulforhodamine B colorimetric assay; format: functional; details: MKN-1, 48 h
[13] = Growth inhibition of human MKN45 cells after 48 hrs by sulforhodamine B colorimetric assay; format: functional; details: MKN-45, 48 h
NCI-H23 [14] = experiment: Antitumor activity against human NCI-H23 cells xenografted in mouse assessed as inhibition of tumor growth on day 16 at 100 mg/kg, ip on day 0 and day 6; format: functional, organism-based; design: dose 100 mg/kg
NCI-H23 [15] = experiment: Growth inhibition of human NCI-H23 cells after 48 hrs by sulforhodamine B colorimetric assay; format: functional; details: NCI-H23, 48 h
NCI-H460 = experiment: Growth inhibition of human NCI-H460 cells after 48 hrs by sulforhodamine B colorimetric assay; format: functional; details: NCI-H460, 48 h
[16] = Growth inhibition of human PC3 cells after 48 hrs by sulforhodamine B colorimetric assay; format: functional; details: PC-3, 48 h
[17] = Growth inhibition of human BSY1 cells after 48 hrs by sulforhodamine B colorimetric assay; format: functional; details: BSY-1, 48 h
[18] = Growth inhibition of human DMS114 cells after 48 hrs by sulforhodamine B colorimetric assay; format: functional; details: DMS-114, 48 h
ACHN = experiment: Growth inhibition of human ACHN cells after 48 hrs by sulforhodamine B colorimetric assay; format: functional
NCI-H522 = experiment: Growth inhibition of human NCI-H522 cells after 48 hrs by sulforhodamine B colorimetric assay; format: functional; details: NCI-H522, 48 h
[19] = Growth inhibition of human OVCAR3 cells after 48 hrs by sulforhodamine B colorimetric assay; format: functional; details: OVCAR-3, 48 h
[20] = Growth inhibition of human HBC5 cells after 48 hrs by sulforhodamine B colorimetric assay; format: functional; details: HBC5, 48 h
[21] = Growth inhibition of human OVCAR8 cells after 48 hrs by sulforhodamine B colorimetric assay; format: functional; details: OVCAR-8, 48 h
[22] = Growth inhibition of human OVCAR4 cells after 48 hrs by sulforhodamine B colorimetric assay; format: functional; details: OVCAR-4, 48 h
MCF7 = experiment: Growth inhibition of human MCF7 cells after 48 hrs by sulforhodamine B colorimetric assay; format: functional; details: MCF7, 48 h
[23] = Growth inhibition of human MKN74 cells after 48 hrs by sulforhodamine B colorimetric assay; format: functional; details: MKN-74, 48 h
[24] = Growth inhibition of human SF539 cells after 48 hrs by sulforhodamine B colorimetric assay; format: functional; details: SF-539, 48 h
NCI-H23 [25] = experiment: Antitumor activity against human NCI-H23 cells xenografted in mouse assessed as average tumor size on day 16 at 100 mg/kg, ip on day 0 and day 6 relative to control mouse; format: functional; details: route intraperitoneal
St-4 = experiment: Growth inhibition of human St-4 cells after 48 hrs by sulforhodamine B colorimetric assay; format: functional; details: St-4, 48 h
[26] = Growth inhibition of human DMS273 cells after 48 hrs by sulforhodamine B colorimetric assay; format: functional; details: DMS-273, 48 h
[27] = Growth inhibition of human MKN7 cells after 48 hrs by sulforhodamine B colorimetric assay; format: functional; details: MKN-7, 48 h
MDA-MB-231 = experiment: Growth inhibition of human MDA-MB-231 cells after 48 hrs by sulforhodamine B colorimetric assay; format: functional; details: MDA-MB-231, 48 h
NCI-H226 = experiment: Growth inhibition of human NCI-H226 cells after 48 hrs by sulforhodamine B colorimetric assay; format: functional; details: NCI-H226, 48 h
A549 = experiment: Growth inhibition of human A549 cells after 48 hrs by sulforhodamine B colorimetric assay; format: functional; details: A549, 48 h

For `CCCCCCCCCCCC[C@@H](O)[C@H]1CC[C@H]([C@H](O)CCCCCCCCCCNC(=O)c2ccnn2C)O1`, the GI50 (DU-145) was over 100 µM, the MTD [1] was 5 mg/kg and the GI50 (SF-268) was over 100 µM. The GI50 [2] was over 100 µM, the GI50 [3] was over 100 µM and the GI50 (KM12) was over 100 µM. The GI50 [4] was over 100 µM, the GI50 [5] was over 100 µM and the GI50 [6] was over 100 µM. It also gave a GI50 [7] of 10 µM, a GI50 [8] of over 100 µM and a GI50 (U-251) of over 100 µM. For the same compound, the GI50 (SNB-75) was 50.1 µM, the GI50 (SK-OV-3) was over 100 µM and the GI50 (HT-29) was over 100 µM.

With `CCCCCCCCCCCC[C@@H](O)[C@H]1CC[C@H]([C@H](O)CCCCCCCCCCNC(=O)c2ccsc2)O1` the GI50 (DU-145) was 2.19 µM, the GI50 [9] was 1.29 µM and the GI50 [10] was 0.575 µM. For the same compound, the GI50 [11] was 1.51 µM, the GI50 [12] was 2.29 µM and the GI50 (SF-268) was over 100 µM. For the same compound, the GI50 [2] was over 100 µM, the GI50 [3] was over 100 µM and the GI50 [13] was 3.72 µM. The inhibition (NCI-H23 [14]) was “Active”, the GI50 (NCI-H23 [15]) was 0.2 µM and the GI50 (NCI-H460) was 4.9 µM. For the same compound, the GI50 [16] was 1.7 µM, the GI50 (KM12) was 3.02 µM and the GI50 [17] was 3.02 µM. The GI50 [4] was 2.69 µM, the GI50 [18] was 0.17 µM and the GI50 (ACHN) was 3.89 µM. For the same compound, the GI50 (NCI-H522) was 1 µM, the GI50 [19] was 1.7 µM and the GI50 [20] was 2.09 µM. The GI50 [21] was 1.91 µM, the GI50 [22] was 1.7 µM and the GI50 [5] was 38 µM. For the same compound, the GI50 [6] was 2.19 µM, the GI50 (MCF7) was 2 µM and the GI50 [23] was 1.51 µM. It also gave a GI50 [7] of 1 µM, a GI50 [8] of over 100 µM and a GI50 (U-251) of over 100 µM. The GI50 [24] was over 100 µM, the Activity (NCI-H23 [25]) was 16% and the GI50 (St-4) was 1.7 µM. The GI50 [26] was 2 µM, the GI50 [27] was 0.17 µM and the GI50 (SNB-75) was 2.82 µM. The GI50 (SK-OV-3) was over 100 µM, the GI50 (MDA-MB-231) was 4.47 µM and the GI50 (NCI-H226) was 2.4 µM. For the same compound, the GI50 (HT-29) was 1.91 µM and the GI50 (A549) was over 100 µM.

Compound `CCCCCCCCCCCC[C@@H](O)[C@H]1CC[C@H]([C@H](O)CCCCCCCCCCNC(=O)c2ccoc2)O1` has a GI50 (DU-145) of over 100 µM, a GI50 [9] of 3.47 µM and a GI50 [10] of 0.55 µM. For the same compound, the GI50 [11] was 21.9 µM, the GI50 [12] was over 100 µM and the GI50 (SF-268) was over 100 µM. The GI50 [2] was over 100 µM, the GI50 [3] was over 100 µM and the GI50 [13] was over 100 µM. For the same compound, the GI50 (NCI-H23 [15]) was 3.02 µM, the GI50 (NCI-H460) was over 100 µM and the GI50 [16] was 52.5 µM. The GI50 (KM12) was over 100 µM, the GI50 [17] was 2.19 µM and the GI50 [4] was over 100 µM. For the same compound, the GI50 [18] was 0.191 µM, the GI50 (ACHN) was over 100 µM and the GI50 (NCI-H522) was 10 µM. It also gave a GI50 [19] of over 100 µM, a GI50 [20] of over 100 µM and a GI50 [21] of 66.1 µM. The GI50 [22] was 74.1 µM, the GI50 [5] was over 100 µM and the GI50 [6] was 79.4 µM. The GI50 (MCF7) was 26.9 µM, the GI50 [23] was 21.9 µM and the GI50 [7] was over 100 µM. It also gave a GI50 [8] of over 100 µM, a GI50 (U-251) of over 100 µM and a GI50 [24] of over 100 µM. For the same compound, the GI50 (St-4) was 97.7 µM, the GI50 [26] was over 100 µM and the GI50 [27] was 0.372 µM. It also gave a GI50 (SNB-75) of over 100 µM, a GI50 (SK-OV-3) of over 100 µM and a GI50 (MDA-MB-231) of over 100 µM. For the same compound, the GI50 (NCI-H226) was over 100 µM, the GI50 (HT-29) was over 100 µM and the GI50 (A549) was over 100 µM.
